Drawing on PMC10263119, “WSD-0922, a novel brain-penetrant inhibitor of epidermal growth factor receptor, promotes survival in glioblastoma mouse models” (Neuro-Oncology Advances, 2023), this text covers inhibition and IC50 for 1 molecule.

In general, inhibition refers to the relative decrease from the control value, in per cent. A word on the pIC50: it is the negative decadic logarithm of the IC50, by convention in mol/L. A high value points to a small IC50.

Assay type in all cases: biochemical
In one experiment the target is LCK (Homo sapiens, UniProt P06239). Kind of experiment: in vitro kinase inhibition, single concentration ([…]). The note with it: read-out: %Inhibition (1 μM WSD-0922).
The next experiment has as its target T1, HER4 (Homo sapiens, UniProt Q15303).
T1 construct: gene ERBB4
Described as above. The note with it: read-out: %Inhibition (1 μM WSD-0922).

In another experiment the target is T2, LYNa (Homo sapiens, UniProt P07948).
T2 construct: gene LYN
The description is as above. The note with it: read-out: %Inhibition (1 μM WSD-0922).

Another experiment has as its target SRC (Homo sapiens, UniProt P12931). The description is as above. Conditions: read-out: %Inhibition (1 μM WSD-0922).
A further experiment concerns the target HCK (Homo sapiens, UniProt P08631). The description is as above. Conditions: read-out: %Inhibition (1 μM WSD-0922).
For a further experiment, the target named is T3, EPHA1 (Homo sapiens, UniProt P21709).
T3 sequence (P21709 26-976): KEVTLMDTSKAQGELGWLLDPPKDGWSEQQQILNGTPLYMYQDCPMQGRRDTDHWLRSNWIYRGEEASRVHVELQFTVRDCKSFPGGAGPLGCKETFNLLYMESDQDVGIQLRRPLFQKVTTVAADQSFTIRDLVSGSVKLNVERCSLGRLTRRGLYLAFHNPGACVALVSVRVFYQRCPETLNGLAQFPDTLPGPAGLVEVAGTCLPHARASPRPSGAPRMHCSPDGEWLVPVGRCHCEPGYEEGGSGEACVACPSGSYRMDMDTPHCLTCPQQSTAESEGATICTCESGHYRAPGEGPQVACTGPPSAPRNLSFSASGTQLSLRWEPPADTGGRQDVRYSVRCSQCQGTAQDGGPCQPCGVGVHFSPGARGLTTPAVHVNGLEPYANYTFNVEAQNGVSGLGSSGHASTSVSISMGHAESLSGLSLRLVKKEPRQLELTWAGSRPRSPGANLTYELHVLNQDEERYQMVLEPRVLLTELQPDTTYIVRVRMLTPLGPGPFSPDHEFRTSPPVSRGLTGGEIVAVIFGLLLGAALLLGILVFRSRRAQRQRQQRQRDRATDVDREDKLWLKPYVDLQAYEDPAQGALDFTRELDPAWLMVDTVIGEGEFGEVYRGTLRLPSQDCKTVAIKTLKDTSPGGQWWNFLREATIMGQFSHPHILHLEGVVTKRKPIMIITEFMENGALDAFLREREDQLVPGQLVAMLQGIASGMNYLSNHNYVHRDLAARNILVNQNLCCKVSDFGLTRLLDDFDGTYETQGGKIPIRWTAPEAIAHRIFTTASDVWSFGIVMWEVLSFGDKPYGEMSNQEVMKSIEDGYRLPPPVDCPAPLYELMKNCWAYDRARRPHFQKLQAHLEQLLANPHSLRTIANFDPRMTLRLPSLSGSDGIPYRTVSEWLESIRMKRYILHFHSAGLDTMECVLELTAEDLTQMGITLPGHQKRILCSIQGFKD
The description is as above. The note with it: read-out: %Inhibition (1 μM WSD-0922).

A further experiment has as its target EGFR (Homo sapiens, UniProt P00533). Kind of experiment: cell-free in vitro kinase inhibition assay; kinetic data.

pIC50: −log10 of the molar value.

LCK, sequence (P06239 2-509): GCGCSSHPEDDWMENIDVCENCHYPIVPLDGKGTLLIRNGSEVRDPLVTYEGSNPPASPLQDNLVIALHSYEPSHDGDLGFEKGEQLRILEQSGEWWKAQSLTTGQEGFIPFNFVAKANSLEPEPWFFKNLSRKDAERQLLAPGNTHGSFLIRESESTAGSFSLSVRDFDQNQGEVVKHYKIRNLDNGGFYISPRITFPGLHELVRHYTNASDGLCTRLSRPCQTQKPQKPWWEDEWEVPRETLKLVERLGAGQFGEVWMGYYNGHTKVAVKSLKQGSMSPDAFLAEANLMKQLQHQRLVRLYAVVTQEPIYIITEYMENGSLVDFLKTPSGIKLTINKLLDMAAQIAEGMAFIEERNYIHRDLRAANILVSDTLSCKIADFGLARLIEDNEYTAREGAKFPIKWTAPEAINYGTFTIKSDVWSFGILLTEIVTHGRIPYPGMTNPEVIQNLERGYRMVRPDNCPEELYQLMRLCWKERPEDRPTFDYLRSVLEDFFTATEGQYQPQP
T1 sequence (Q15303 26-1308): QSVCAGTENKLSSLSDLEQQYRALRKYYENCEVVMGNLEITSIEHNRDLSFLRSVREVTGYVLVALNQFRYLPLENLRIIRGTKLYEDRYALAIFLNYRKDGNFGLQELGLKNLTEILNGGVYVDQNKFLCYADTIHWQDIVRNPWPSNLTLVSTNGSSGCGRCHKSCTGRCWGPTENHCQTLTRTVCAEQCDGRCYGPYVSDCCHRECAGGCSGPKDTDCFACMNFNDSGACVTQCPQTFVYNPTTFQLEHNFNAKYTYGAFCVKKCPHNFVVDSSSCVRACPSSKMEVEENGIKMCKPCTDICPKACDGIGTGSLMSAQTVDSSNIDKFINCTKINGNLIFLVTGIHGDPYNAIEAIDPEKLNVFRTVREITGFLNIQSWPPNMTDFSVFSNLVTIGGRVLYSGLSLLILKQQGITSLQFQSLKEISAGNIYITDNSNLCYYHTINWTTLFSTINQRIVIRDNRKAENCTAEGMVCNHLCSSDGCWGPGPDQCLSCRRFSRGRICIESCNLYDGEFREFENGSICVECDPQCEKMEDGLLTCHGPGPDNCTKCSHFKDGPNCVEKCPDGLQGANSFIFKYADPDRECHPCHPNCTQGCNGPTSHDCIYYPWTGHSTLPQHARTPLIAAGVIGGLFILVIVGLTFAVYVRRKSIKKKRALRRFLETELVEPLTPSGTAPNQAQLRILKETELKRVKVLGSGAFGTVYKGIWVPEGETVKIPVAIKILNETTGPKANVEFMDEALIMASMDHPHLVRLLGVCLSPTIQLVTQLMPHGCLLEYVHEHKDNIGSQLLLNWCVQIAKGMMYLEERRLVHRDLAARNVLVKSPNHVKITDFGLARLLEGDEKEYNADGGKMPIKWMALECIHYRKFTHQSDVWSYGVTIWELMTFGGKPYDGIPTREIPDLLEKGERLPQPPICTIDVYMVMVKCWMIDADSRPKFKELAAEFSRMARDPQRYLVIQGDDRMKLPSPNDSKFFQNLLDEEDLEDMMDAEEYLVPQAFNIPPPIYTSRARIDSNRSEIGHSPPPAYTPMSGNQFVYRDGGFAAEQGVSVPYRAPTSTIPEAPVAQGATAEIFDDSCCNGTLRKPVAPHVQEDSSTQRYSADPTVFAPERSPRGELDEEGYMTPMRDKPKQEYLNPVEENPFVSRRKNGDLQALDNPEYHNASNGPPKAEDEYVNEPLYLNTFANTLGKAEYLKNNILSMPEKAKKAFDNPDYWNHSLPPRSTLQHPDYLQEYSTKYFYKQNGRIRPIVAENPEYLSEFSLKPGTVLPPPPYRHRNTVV
SRC, sequence (P12931 2-536): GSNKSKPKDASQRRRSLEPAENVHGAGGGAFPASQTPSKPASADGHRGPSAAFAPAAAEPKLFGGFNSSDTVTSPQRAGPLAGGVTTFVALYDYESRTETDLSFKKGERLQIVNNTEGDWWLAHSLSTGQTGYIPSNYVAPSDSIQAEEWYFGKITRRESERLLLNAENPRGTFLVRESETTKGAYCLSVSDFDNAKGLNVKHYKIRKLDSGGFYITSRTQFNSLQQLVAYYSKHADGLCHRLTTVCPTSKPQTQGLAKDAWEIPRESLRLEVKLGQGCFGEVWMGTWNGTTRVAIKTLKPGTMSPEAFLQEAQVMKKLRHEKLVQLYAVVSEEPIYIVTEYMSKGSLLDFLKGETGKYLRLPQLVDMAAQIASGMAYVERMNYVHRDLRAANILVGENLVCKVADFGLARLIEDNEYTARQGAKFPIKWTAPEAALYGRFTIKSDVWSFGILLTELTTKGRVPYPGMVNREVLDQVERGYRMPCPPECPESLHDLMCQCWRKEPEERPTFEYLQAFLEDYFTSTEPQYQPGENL
HCK, sequence (P08631 2-526): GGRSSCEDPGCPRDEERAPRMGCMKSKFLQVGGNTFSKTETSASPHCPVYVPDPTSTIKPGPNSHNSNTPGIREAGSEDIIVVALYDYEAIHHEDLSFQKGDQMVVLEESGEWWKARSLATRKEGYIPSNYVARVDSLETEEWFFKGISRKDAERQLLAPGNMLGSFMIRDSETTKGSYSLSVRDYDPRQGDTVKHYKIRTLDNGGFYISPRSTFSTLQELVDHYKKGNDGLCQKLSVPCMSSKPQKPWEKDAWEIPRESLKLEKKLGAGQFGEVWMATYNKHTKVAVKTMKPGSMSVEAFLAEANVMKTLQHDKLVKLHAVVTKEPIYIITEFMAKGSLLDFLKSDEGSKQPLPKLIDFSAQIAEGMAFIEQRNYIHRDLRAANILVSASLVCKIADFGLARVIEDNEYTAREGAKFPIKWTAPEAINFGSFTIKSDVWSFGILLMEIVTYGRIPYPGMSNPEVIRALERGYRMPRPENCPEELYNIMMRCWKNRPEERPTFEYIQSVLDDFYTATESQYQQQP
T2 sequence (P07948 2-512): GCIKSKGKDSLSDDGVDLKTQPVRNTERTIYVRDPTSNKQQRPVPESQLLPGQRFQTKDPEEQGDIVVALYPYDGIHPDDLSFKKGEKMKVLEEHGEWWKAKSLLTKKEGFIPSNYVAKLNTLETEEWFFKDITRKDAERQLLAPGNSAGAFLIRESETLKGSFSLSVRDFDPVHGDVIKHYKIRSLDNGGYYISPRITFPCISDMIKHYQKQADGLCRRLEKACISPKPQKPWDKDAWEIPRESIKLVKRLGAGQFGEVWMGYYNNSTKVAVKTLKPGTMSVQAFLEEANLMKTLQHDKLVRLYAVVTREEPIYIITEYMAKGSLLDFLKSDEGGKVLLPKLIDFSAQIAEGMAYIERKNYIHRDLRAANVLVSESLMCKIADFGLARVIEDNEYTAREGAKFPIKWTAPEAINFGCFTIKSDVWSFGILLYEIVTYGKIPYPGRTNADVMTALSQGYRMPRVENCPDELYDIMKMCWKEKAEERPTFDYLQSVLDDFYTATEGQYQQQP
EGFR, sequence (P00533 25-1210): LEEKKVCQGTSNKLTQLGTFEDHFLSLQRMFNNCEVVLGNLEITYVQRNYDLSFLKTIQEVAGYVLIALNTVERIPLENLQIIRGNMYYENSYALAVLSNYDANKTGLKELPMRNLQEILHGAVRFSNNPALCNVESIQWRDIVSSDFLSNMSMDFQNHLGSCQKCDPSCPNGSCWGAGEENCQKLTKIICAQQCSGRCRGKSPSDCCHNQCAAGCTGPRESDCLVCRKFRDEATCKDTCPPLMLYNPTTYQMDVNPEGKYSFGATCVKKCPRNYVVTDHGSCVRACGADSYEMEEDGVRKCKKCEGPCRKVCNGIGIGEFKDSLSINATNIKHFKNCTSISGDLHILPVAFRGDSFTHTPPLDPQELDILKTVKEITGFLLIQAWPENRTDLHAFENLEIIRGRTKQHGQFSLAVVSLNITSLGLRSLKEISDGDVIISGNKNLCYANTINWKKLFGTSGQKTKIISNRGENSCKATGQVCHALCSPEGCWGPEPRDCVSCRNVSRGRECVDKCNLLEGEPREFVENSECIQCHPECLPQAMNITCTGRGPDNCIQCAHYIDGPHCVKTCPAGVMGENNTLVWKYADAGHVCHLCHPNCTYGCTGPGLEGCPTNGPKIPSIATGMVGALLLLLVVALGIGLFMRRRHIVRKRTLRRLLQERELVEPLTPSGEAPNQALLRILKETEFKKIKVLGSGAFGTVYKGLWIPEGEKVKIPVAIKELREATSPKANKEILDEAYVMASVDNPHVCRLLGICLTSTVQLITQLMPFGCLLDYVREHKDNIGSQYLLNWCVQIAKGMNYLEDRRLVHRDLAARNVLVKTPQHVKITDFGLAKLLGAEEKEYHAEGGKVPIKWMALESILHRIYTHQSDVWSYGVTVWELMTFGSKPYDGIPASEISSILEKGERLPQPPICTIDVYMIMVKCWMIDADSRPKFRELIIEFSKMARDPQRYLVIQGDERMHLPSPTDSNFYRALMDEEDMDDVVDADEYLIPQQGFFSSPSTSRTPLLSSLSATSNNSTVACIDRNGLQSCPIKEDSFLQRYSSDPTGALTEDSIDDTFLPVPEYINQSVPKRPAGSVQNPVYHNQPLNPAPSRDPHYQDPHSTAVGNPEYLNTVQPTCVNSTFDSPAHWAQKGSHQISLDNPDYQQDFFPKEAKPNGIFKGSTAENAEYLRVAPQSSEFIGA

As for `C#Cc1cccc(Nc2ncnc3cc(OC)c(O[C@@H]4CCN(C)CC4(F)F)cc23)c1F` [WSD-0922], the inhibition at 1 µM was 46.2% at LCK; 69.8% at HER4; 70.9% at LYNa; 39.5% at SRC; 49.7% on HCK; 55.4% at EPHA1. The pIC50 against EGFR is 10.25.
